Data on four compounds can be found in patent US20260060982A1, “USE OF BTK INHIBITOR AND SINGLE-DOSE DRUG” (HUBEI BIO-PHARMACEUTICAL INDUSTRIAL TECHNOLOGICAL INSTITUTE …, priority 2023, published 2026).

The subject of test [1] is anti-DNP IgE-induced passive cutaneous anaphylaxis in BALB/c mice. Briefly: Passive cutaneous anaphylaxis (PCA) model in mice induced with anti-DNP IgE. Format: in vivo. From the text: Passive cutaneous anaphylaxis test, also known as PCA reaction, is a local allergic reaction caused by antibodies that bind to the same or different animal tissues. The PCA animal model in the present disclosure was a passive sensitization model in which IgE binds to specific receptors on skin mast cells. When allergens were stimulated, local mast cells released allergic mediators, thereby increasing local vascular permeability. […] The specific steps were as follows:
The PCA model in mice was induced using anti-DNP IgE. Specifically, BALB/c mice were divided into 9 groups, namely, a normal control group (no administration, injection, or feeding of any solvent), a model group (no administration, injection, or feeding of any solvent), a prednisone group (10 mg/kg, administered for 3 consecutive days, QD (once a day), prednisone concentration of 1 mg/mL, and an administration volume of 10 mL/kg), a cetirizine group (20 mg/kg, administered for 3 consecutive days, QD, cetirizine concentration of 2 mg/mL, and an administration volume of 10 mL/kg), a low-dose group and a medium-dose group for the test substance LOU-064 (15 mg/kg and 45 mg/kg, administered for 3 consecutive days, BID (twice a day), LOU-064 concentrations of 1.5 mg/mL and 4.5 mg/mL, and an administration volume of 10 mL/kg), and a low-dose group, a medium-dose group, and a high-dose group for compound (I) (15 mg/kg, 45 mg/kg, and 90 mg/kg, administered for 3 consecutive days, BID, compound (I) concentrations of 1.5 mg/mL, 4.5 mg/mL, and 9 mg/mL, and an administration volume of 10 mL/kg), with 9 mice in each group, administered by gavage for a total of 4 days. On day 3 of the administration, anti-DNP IgE (Sigma-Aldrich) was injected into the left ears of 8 groups of mice (no normal control group), and the same volume of PBS was injected into the right ears of 8 groups and the left and right ears of the normal control group to allow it to bind to mast cells. Then, 24 hours after the fourth day of anti-DNP IgE injection, a mixed solution of antigen (DNP-HAS, Sigma) and pigment Evan's Blue (Sigma) (0.25 mL/mouse, i.v.) was injected into the tail vein (the normal control group was injected with the same volume of the mixed solution of antigen and pigment Evan's Blue). The antigen reacted with the antibody attached to the mast cells, causing a local allergic reaction, increased local vascular permeability, and pigment penetration into the tissue. The reaction intensity was determined by measuring the local pigment content 30 minutes later. The dye was extracted from the left and right ears, and the absorbance of Evan's blue was measured at a specific wavelength. […] The efficacy effects of each test substances in the PCA animal model were evaluated.

The test system of test [2] is PG-PS-induced arthritis in Lewis rats. Briefly: PG-PS-induced arthritis model in rats. It counts as in vivo. From the text: Intraperitoneal injection of PG-PS suspension can effectively induce chronic, erosive, and relapsing symptoms similar to human rheumatoid arthritis in rats, and is often used to evaluate the in vivo effectiveness of medicaments in the early discovery of arthritis medicaments. The specific steps were as follows:
On day 0, Lewis rats were randomly divided into 6 groups, with 5 rats in the first group and 10 rats in each group from the second group to the sixth group. All rats in the second to sixth groups were intraperitoneally injected with PG-PS (Lee Laboratories, PG-PS 10S, 5.1 mg/ml Rhamnose) to establish the model. The PG-PS injection dose v=15 μg/g×bw (rat weight, in g)/5.1 μg/μL.
On day 1, the model rats (the second to sixth groups) were randomly redivided into 5 groups, with 10 rats in each group. The animals in each group were given the corresponding medicament or vehicle by gavage once a day until the 29th day. […] Clinical observations and clinical scoring were performed daily during the administration period. The ankle diameter of each animal after modeling was subtracted from its ankle diameter before modeling to obtain the ankle diameter difference (delta ankle diameter). The area under the curve (AUC) was calculated by analyzing the ankle diameter difference of each animal in each group. The inhibition rate of each administration group relative to the blank vehicle control was calculated by the average AUC between groups.
Pathology: On day 30, the rats were euthanized. The two hind limbs of rats were stained with toluidine blue to evaluate the degree of joint damage in terms of inflammatory cell lesions, pannus formation, cartilage damage, bone resorption, and periosteal new bone formation, and the severity was scored on a scale from 0 to 7.

In test [3] the test system is IgM-induced calcium signaling in RAMOS cells. Briefly: Antagonism of IgM-induced calcium signaling in RAMOS cells (FLIPR). It counts as cell-based. To be noted: Fluo-4D dye. How it is done:
The specific test steps were as follows:
A. Ramos cells (ECACC) were seeded in a 384 experimental plate using cell culture medium (RPMI 1640 medium supplemented with 10% fetal bovine serum) at a density of 5×10^6 cells/mL, 20 μL per well.
C. The cell plate and the compound plate were placed into FLIPR. 10 μL was transferred from the compound plate by the FLIPR instrument and added to the cell plate. The cell plate was removed and incubated in a 37° C. incubator for 1 h.
D. One hour later, 40 μL of Fluo-4D dye (Life Technologies, formulated as 0.5× with 40 mL of HBSS and HEPES buffer) was added to the cell plate and incubated at 37° C. for 50 min.
E. 10 μL of IgM at 8×EC80 concentration was added, and the plate was read using FLIPR.
F. The IC50 results of the compounds were analyzed using EXCEL and Prism statistical software.

In test [4] the test system is collagen-induced arthritis in DBA/1 mice. Nature of the test: Collagen-induced arthritis (CIA) model in mice. Format: in vivo. The method, then:
Clinical symptoms of arthritis were induced in mice by injecting collagen emulsion into the tail of mice. The specific steps were as follows:
DBA/1 mice were randomly divided into 6 groups, with 10 mice in each group except the blank control group (5 mice). […] The day of the first immunization was recorded as day 0, and the subsequent days were marked in sequence. DBA/1 mice were anesthetized with isoflurane and injected subcutaneously with 50 μl of the prepared collagen emulsion (containing 200 μg of CII) at the tail (2 cm to 3 cm from the base of the tail). On day 21, the same volume of collagen emulsion was injected into the tail in the same way.
On day 28, when the average clinical score reached 1 to 2, the mice were randomly redivided into 4 treatment groups (10 mice per group) and a blank vehicle control group (10 mice per group) according to body weight and score. […] The administration was performed once daily for 14 days by gavage at 10 mL/kg. After the administration, the clinical score curve of each animal in each group was analyzed to calculate the area under the curve (AUC). The inhibition rate of each administration group relative to the blank vehicle control was calculated based on the average AUC between groups.
Clinical observation: From 7 days before immunization to 21 days after immunization, the basic health status and weight changes of DBA/1 mice were observed daily (recorded twice a week). After day 22, the health status, disease incidence, and weight changes of the mice were observed daily (recorded every two days) until the end of the experiment.
When mice began to develop symptoms of arthritis (clinical symptoms of arthritis appeared), they were scored on a scale from 0 to 4 based on the severity of the lesions (redness, swelling, joint deformation), with a maximum score of 4 for each limb and a maximum score of 16 for each animal. The scoring was performed at least three times a week.
Pathology: On day 42, mice were euthanized. The two hind limbs of the mice were taken, soaked in 10% formalin solution, decalcified with formic acid solution, embedded in paraffin, sectioned, stained with hematoxylin-eosin (HE), and observed under a microscope. The degree of joint damage was evaluated from four aspects: inflammatory cell infiltration, pannus formation, cartilage damage, and bone resorption, and scored on a scale from 0 to 4.

For the compound `O=C(O)COCCN1CCN(C(c2ccccc2)c2ccc(Cl)cc2)CC1` (stereo not shown) [Cetirizine, cetirizine, reference compound], in test [1] (20 mg/kg QD by gavage), the “Concentration of Evan's Blue, Left ear, Average value” (“Concentration of Evan's Blue” below) is 22.70 µg/mL.
With `C[C@]12C=CC(=O)C=C1CC[C@@H]1[C@@H]2C(=O)C[C@@]2(C)[C@H]1CC[C@]2(O)C(=O)CO` [Prednisone, prednisone, reference compound], the “Concentration of Evan's Blue” value in test [1] (10 mg/kg QD by gavage) worked out at 25.36 µg/mL.
As to `C=CC(=O)N(C)CCOc1c(N)ncnc1-c1cc(F)cc(NC(=O)c2ccc(C3CC3)cc2F)c1C` [LOU-064, reference compound], the “Concentration of Evan's Blue” value in test [1] (15 mg/kg BID by gavage) amounted to 24.45 µg/mL; in test [1] (45 mg/kg BID by gavage), 17.24 µg/mL.
In the case of `C=CC(=O)Nc1cccc(Nc2nc(Nc3ccc(OCCOC)cc3)ncc2F)c1` [CC-292, reference compound], in test [2] (3 mg/kg once a day by gavage until the 29th day), the “inhibition rate (AUC of ankle diameter difference vs blank vehicle control)” value was −0.1%. The “joint tissue lesions (pathology)” value in test [2] (3 mg/kg, day 30) is reported as “more severe”. The 50% inhibitory concentration (IC50) in test [3] came out at 171 ± 4.03 nM. The “histopathological score compared with the blank vehicle control group” value in test [4] (3 mg/kg) is “not significantly different”. Besides, in test [4] (3 mg/kg once daily by gavage for 14 days), the “inflammation inhibition rate (AUC of clinical score vs blank vehicle control)” value turned out to be 29.1%. In addition, the “pathology of foot joint bone tissue” value in test [4] (3 mg/kg, day 42) is “certain inflammation and more bone tissue damage”.
